Assay results reported in the supplement of paper PMC8671470.

The compounds below were run on Mono-Mac-6 (assay: not given). Details: 72 h.
Summary of the method: (§1)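 Fifteen myeloid leukaemia lines in RPMI 1640 were treated for 72 h at 37 °C and 5% CO2 with five tenfold doses from 1 to 10,000 nM, in duplicate. ATP luminescence was normalised to vehicle and to a positive control at 10 µM, then fitted with a four-parameter log-logistic model. The IC50 came from these fits.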
With C=C(C=NNC(=N)N)NNC(=N)N [Mitoguazone] the “IC50 (cell viability)” value was 1.24 µM.
CCCCC/C=C\C/C=C\C/C=C\C/C=C\CCCCN1C(=O)C=CC1=O [N-Arachidonylmaleimide] was tested, and the “IC50 (cell viability)” value was over 10 µM.
CCCCCCCCCCC[C@@H](C[C@@H]1OC(=O)[C@H]1CCCCCC)OC(=O)[C@H](CC(C)C)NC=O [Orlistat] was tested, and the “IC50 (cell viability)” value was over 10 µM.
With COc1ccc(C(=O)Nc2c(Cl)cncc2Cl)cc1OC1CCCC1 [Piclamilast] the “IC50 (cell viability)” value was over 10 µM.
COc1cc(/C=C/C(=O)N2CCC=CC2=O)cc(OC)c1OC [Piperlongumine] was tested, and the “IC50 (cell viability)” value was 2.38 µM.
O=C(NNc1ccccc1)c1ccncc1 [PluriSln 1] was tested, and the “IC50 (cell viability)” value was over 10 µM.
CC(C)c1nc(CN(C)C(=O)N[C@H](C(=O)N[C@@H](Cc2ccccc2)C[C@H](O)[C@H](Cc2ccccc2)NC(=O)OCc2cncs2)C(C)C)cs1 [Ritonavir] was tested, and the “IC50 (cell viability)” value was over 10 µM.
C=C(C)[C@H]1Cc2c(ccc3c2O[C@@H]2COc4cc(OC)c(OC)cc4[C@@H]2C3=O)O1 [Rotenone] was tested, and the “IC50 (cell viability)” value was 0.225 µM.
For Oc1ccc(Nc2nc(-c3ccc(Cl)cc3)cs2)cc1 [SKI II], the “IC50 (cell viability)” value was 4.12 µM.
With O=C(O)c1cc(N=Nc2ccc(S(=O)(=O)Nc3ccccn3)cc2)ccc1O [Sulfasalazine] the “IC50 (cell viability)” value was over 10 µM.

The compounds below were run on NOMO-1 (assay: not given). Details: 72 h.
Summary of the method: as §1
In the case of CCCCN1C[C@H](O)[C@@H](O)[C@H](O)[C@H]1CO [Miglustat], the “IC50 (cell viability)” value was over 10 µM.
For C=C(C=NNC(=N)N)NNC(=N)N [Mitoguazone], the “IC50 (cell viability)” value was 1.59 µM.
With CCCCC/C=C\C/C=C\C/C=C\C/C=C\CCCCN1C(=O)C=CC1=O [N-Arachidonylmaleimide] the “IC50 (cell viability)” value was over 10 µM.
For CCCCCCCCCCC[C@@H](C[C@@H]1OC(=O)[C@H]1CCCCCC)OC(=O)[C@H](CC(C)C)NC=O [Orlistat], the “IC50 (cell viability)” value was over 10 µM.
In the case of COc1ccc(C(=O)Nc2c(Cl)cncc2Cl)cc1OC1CCCC1 [Piclamilast], the “IC50 (cell viability)” value was over 10 µM.
With COc1cc(/C=C/C(=O)N2CCC=CC2=O)cc(OC)c1OC [Piperlongumine] the “IC50 (cell viability)” value was 3.22 µM.
For O=C(NNc1ccccc1)c1ccncc1 [PluriSln 1], the “IC50 (cell viability)” value was over 10 µM.
With CC(C)c1nc(CN(C)C(=O)N[C@H](C(=O)N[C@@H](Cc2ccccc2)C[C@H](O)[C@H](Cc2ccccc2)NC(=O)OCc2cncs2)C(C)C)cs1 [Ritonavir] the “IC50 (cell viability)” value was over 10 µM.
In the case of C=C(C)[C@H]1Cc2c(ccc3c2O[C@@H]2COc4cc(OC)c(OC)cc4[C@@H]2C3=O)O1 [Rotenone], the “IC50 (cell viability)” value was 0.644 µM.
For Oc1ccc(Nc2nc(-c3ccc(Cl)cc3)cs2)cc1 [SKI II], the “IC50 (cell viability)” value was over 10 µM.
For O=C(O)c1cc(N=Nc2ccc(S(=O)(=O)Nc3ccccn3)cc2)ccc1O [Sulfasalazine], the “IC50 (cell viability)” value was over 10 µM.

These compounds were tested on SHI-1 (assay: not given). Details: 72 h.
Summary of the method: as §1
In the case of CCCCN1C[C@H](O)[C@@H](O)[C@H](O)[C@H]1CO [Miglustat], the “IC50 (cell viability)” value was over 10 µM.
With C=C(C=NNC(=N)N)NNC(=N)N [Mitoguazone] the “IC50 (cell viability)” value was 1.1 µM.
CCCCC/C=C\C/C=C\C/C=C\C/C=C\CCCCN1C(=O)C=CC1=O [N-Arachidonylmaleimide] was tested, and the “IC50 (cell viability)” value was over 10 µM.
In the case of CCCCCCCCCCC[C@@H](C[C@@H]1OC(=O)[C@H]1CCCCCC)OC(=O)[C@H](CC(C)C)NC=O [Orlistat], the “IC50 (cell viability)” value was over 10 µM.
For COc1ccc(C(=O)Nc2c(Cl)cncc2Cl)cc1OC1CCCC1 [Piclamilast], the “IC50 (cell viability)” value was over 10 µM.
For COc1cc(/C=C/C(=O)N2CCC=CC2=O)cc(OC)c1OC [Piperlongumine], the “IC50 (cell viability)” value was 2.53 µM.
With O=C(NNc1ccccc1)c1ccncc1 [PluriSln 1] the “IC50 (cell viability)” value was over 10 µM.
With CC(C)c1nc(CN(C)C(=O)N[C@H](C(=O)N[C@@H](Cc2ccccc2)C[C@H](O)[C@H](Cc2ccccc2)NC(=O)OCc2cncs2)C(C)C)cs1 [Ritonavir] the “IC50 (cell viability)” value was over 10 µM.
In the case of C=C(C)[C@H]1Cc2c(ccc3c2O[C@@H]2COc4cc(OC)c(OC)cc4[C@@H]2C3=O)O1 [Rotenone], the “IC50 (cell viability)” value was 0.179 µM.
For Oc1ccc(Nc2nc(-c3ccc(Cl)cc3)cs2)cc1 [SKI II], the “IC50 (cell viability)” value was over 10 µM.
In the case of O=C(O)c1cc(N=Nc2ccc(S(=O)(=O)Nc3ccccn3)cc2)ccc1O [Sulfasalazine], the “IC50 (cell viability)” value was over 10 µM.

The compounds below were run on THP-1 (assay: not given). Details: 72 h.
Summary of the method: as §1
CCCCN1C[C@H](O)[C@@H](O)[C@H](O)[C@H]1CO [Miglustat] was tested, and the “IC50 (cell viability)” value was over 10 µM.
C=C(C=NNC(=N)N)NNC(=N)N [Mitoguazone] was tested, and the “IC50 (cell viability)” value was 3.08 µM.
CCCCC/C=C\C/C=C\C/C=C\C/C=C\CCCCN1C(=O)C=CC1=O [N-Arachidonylmaleimide] was tested, and the “IC50 (cell viability)” value was over 10 µM.
With CCCCCCCCCCC[C@@H](C[C@@H]1OC(=O)[C@H]1CCCCCC)OC(=O)[C@H](CC(C)C)NC=O [Orlistat] the “IC50 (cell viability)” value was over 10 µM.
For COc1ccc(C(=O)Nc2c(Cl)cncc2Cl)cc1OC1CCCC1 [Piclamilast], the “IC50 (cell viability)” value was over 10 µM.
COc1cc(/C=C/C(=O)N2CCC=CC2=O)cc(OC)c1OC [Piperlongumine] was tested, and the “IC50 (cell viability)” value was 2.45 µM.
O=C(NNc1ccccc1)c1ccncc1 [PluriSln 1] was tested, and the “IC50 (cell viability)” value was over 10 µM.
In the case of CC(C)c1nc(CN(C)C(=O)N[C@H](C(=O)N[C@@H](Cc2ccccc2)C[C@H](O)[C@H](Cc2ccccc2)NC(=O)OCc2cncs2)C(C)C)cs1 [Ritonavir], the “IC50 (cell viability)” value was over 10 µM.
In the case of C=C(C)[C@H]1Cc2c(ccc3c2O[C@@H]2COc4cc(OC)c(OC)cc4[C@@H]2C3=O)O1 [Rotenone], the “IC50 (cell viability)” value was 0.268 µM.
Oc1ccc(Nc2nc(-c3ccc(Cl)cc3)cs2)cc1 [SKI II] was tested, and the “IC50 (cell viability)” value was 2.48 µM.
With O=C(O)c1cc(N=Nc2ccc(S(=O)(=O)Nc3ccccn3)cc2)ccc1O [Sulfasalazine] the “IC50 (cell viability)” value was over 10 µM.

These compounds were tested on BV-173 (assay: cell viability (% survival relative to DMSO control, bortezomib = 0%); higher = less cytotoxic). Details: 1 nM; 72 h.
Summary of the method: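 In 384-well plates pre-printed with compounds at 1, 10, 100, 1000 or 10000 nM, duplicate wells received cells from 10 AML and 5 CML lines at densities within the linear growth range. The plates stayed at 37 °C with 5% CO2 for 72 h before CellTiter-Glo luminescence was recorded. Each entry is averaged percent survival. Scaling placed vehicle at 100% and a 10 µM positive control at 0%.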
CCCCN1C[C@H](O)[C@@H](O)[C@H](O)[C@H]1CO [Miglustat] gave a cell viability of 90.7%.
C=C(C=NNC(=N)N)NNC(=N)N [Mitoguazone] was tested, and the cell viability was 105%.
Work on CCCCC/C=C\C/C=C\C/C=C\C/C=C\CCCCN1C(=O)C=CC1=O [N-Arachidonylmaleimide] yielded a cell viability of 99.9%.
With CCCCCCCCCCC[C@@H](C[C@@H]1OC(=O)[C@H]1CCCCCC)OC(=O)[C@H](CC(C)C)NC=O [Orlistat] the cell viability was 86.3%.
In the case of COc1ccc(C(=O)Nc2c(Cl)cncc2Cl)cc1OC1CCCC1 [Piclamilast], the cell viability was 86.3%.
With COc1cc(/C=C/C(=O)N2CCC=CC2=O)cc(OC)c1OC [Piperlongumine] the cell viability was 93.3%.
Compound O=C(NNc1ccccc1)c1ccncc1 [PluriSln 1] has a cell viability of 86%.
With CC(C)c1nc(CN(C)C(=O)N[C@H](C(=O)N[C@@H](Cc2ccccc2)C[C@H](O)[C@H](Cc2ccccc2)NC(=O)OCc2cncs2)C(C)C)cs1 [Ritonavir] the cell viability was 107%.
C=C(C)[C@H]1Cc2c(ccc3c2O[C@@H]2COc4cc(OC)c(OC)cc4[C@@H]2C3=O)O1 [Rotenone] was tested, and the cell viability was 106%.
Compound Oc1ccc(Nc2nc(-c3ccc(Cl)cc3)cs2)cc1 [SKI II] has a cell viability of 104%.
O=C(O)c1cc(N=Nc2ccc(S(=O)(=O)Nc3ccccn3)cc2)ccc1O [Sulfasalazine] gave a cell viability of 106%.

Same assay, conditions: 10 nM; 72 h
In the case of CCCCN1C[C@H](O)[C@@H](O)[C@H](O)[C@H]1CO [Miglustat], the cell viability was 104%.
C=C(C=NNC(=N)N)NNC(=N)N [Mitoguazone] showed a cell viability of 111%.
For CCCCC/C=C\C/C=C\C/C=C\C/C=C\CCCCN1C(=O)C=CC1=O [N-Arachidonylmaleimide], the cell viability was 97.7%.
Compound CCCCCCCCCCC[C@@H](C[C@@H]1OC(=O)[C@H]1CCCCCC)OC(=O)[C@H](CC(C)C)NC=O [Orlistat] has a cell viability of 92%.
COc1ccc(C(=O)Nc2c(Cl)cncc2Cl)cc1OC1CCCC1 [Piclamilast] showed a cell viability of 107%.
COc1cc(/C=C/C(=O)N2CCC=CC2=O)cc(OC)c1OC [Piperlongumine] gave a cell viability of 99.9%.
Work on O=C(NNc1ccccc1)c1ccncc1 [PluriSln 1] yielded a cell viability of 93.5%.
